Key:
[1] = Description: The stratum corneum was physically disrupted by repeatedly scratching the skin of a pig with 400 μm blades 20 times, 10 scratchings in one direction, 10 more in a direction perpendicular to the previous direction. Two electrodes were constructed with hollow 3.5 cm by 3.5 cm by 0.5 cm polystyrene vessels each having a volume of about 5 cm^3. A 3 cm by 3 cm by 0.5 mm piece of stainless steel was adhered to the inside of each polystyrene vessel. The electrodes were affixed to the skin of the pig with Dow Corning 355 Medical Adhesive available from Dow Corning of Midland, Mich.
An insulin solution available as Humulin-®(500 units/mL) from Eli Lilly and Co. of Indianapolis, Ind., was injected into the vessel with a hyperdermic needle. Iontophoresis was performed with direct current at a current intensity of 4 mA over about 12 cm^2 of skin. The electric polarity was manually reversed every 5 minutes for 2 hours. The blood glucose concentration and insulin serum concentration in the pig were periodically measured before, during, and after iontophoresis.
The skin on a pig was wiped generously with 200 proof ethanol and allowed to dry to induce skin permeation enhancement. The procedure described in Example 5 was then repeated. The blood glucose concentration and insulin serum concentration in the pig were monitored for 6 hours. […]

[2] = Transdermal reverse polarity iontophoresis of insulin in pig: blood glucose concentration; type: in vivo
Procedure: The procedure in Example 3 was repeated, except the stratum corneum of the pig was not disrupted with 400 μm blades and reverse polarity iontophoresis was only conducted for 30 minutes. […] Thus, no insulin was apparently delivered during the iontophoresis process.
The procedure in Example 4 was repeated, except 800 μm blades were pressed against the stratum corneum of a diabetic pig before iontophoresis was performed. The blood glucose in the pig was monitored for 9 hours.
The procedure described in Example 5 was then repeated.
The procedure in Example 5 was repeated except that ethyl cyanoacrylate was applied to the surface of the 800 μm blades before the blades were pressed against the skin of the pig. The blades were held against the skin of the pig for 2 minutes prior to performing iontophoresis to allow the ethyl cyanoacrylate to solidify prior to removal. […] The blood glucose concentration in the pig was monitored for 8 hours. The quantity of insulin delivered was so large that the hyperglycemic pig having an initial blood glucose concentration of 180 mg/dl became seriously hypoglycemic with a blood glucose concentration of 25 mg/dl.

[3] = Example 5: diabetic pig, 800 μm blades, iontophoresis 30 minutes

## insulin
[1]; Example 3: pig skin scratched with 400 μm blades, reverse polarity iontophoresis for 2 hours, from 25
  insulin serum rise (insulin serum concentration): 590 _IU/ml
[1]; Example 6: skin wiped with 200 proof ethanol, 800 μm blades, after one hour
  serum insulin concentration: approximately 60 _IU/ml
[2]; Comparative Example 4: stratum corneum not disrupted with blades, reverse polarity iontophoresis 30 minutes
  reduction in blood glucose: lack of any reduction in blood glucose
[2]; Example 3: pig skin scratched with 400 μm blades, iontophoresis 4 mA over about 12 cm^2, polarity reversed every 5 minutes for 2 hours, from 140 mg/dl
  blood glucose concentration: 30 mg/dL
[2]; Example 3: pig skin scratched with 400 μm blades, reverse polarity iontophoresis for 2 hours
  reduction of the blood glucose concentration: ~80%
[2]; Example 5: diabetic pig, 800 μm blades pressed against stratum corneum, iontophoresis 30 minutes, monitored 9 hours
  reduction in the blood glucose concentration: ~37%
[2]; [3]
  blood glucose level maintained: below 140 mg/dl
  time blood glucose level was maintained below 140 mg/dl: over 8 hours
[2]; Example 6: skin wiped with 200 proof ethanol, 800 μm blades, after 2 hours
  reduction of blood glucose: ~50%
[2]; Example 7: skin pre-treated with Nair lotion (calcium thioglycolate), 800 μm blades, iontophoresis 120 minutes, after 3 hours
  reduction of blood glucose: 30%
[2]; Example 8: hyperglycemic pig, ethyl cyanoacrylate on 800 μm blades, iontophoresis 120 minutes, initial 180 mg/dl
  blood glucose concentration: 25 mg/dL
